Laboratory results reported in patent US20140066385A1, “METHOD FOR TREATING CANCER BY COMBINED USE OF DRUGS” (Astellas Pharma Inc., priority 2011, published 2014).

Legend:
[1] = system: human breast cancer (MDA-MB-468); test: Example 11: FK330 with docetaxel in MDA-MB-468 tumor-bearing mice; assay type: in vivo, nude mice; details: FK330 100 mg/kg bid p.o. + docetaxel 15 mg/kg/day i.v. (Day 0 and Day 37)
Method: The dose of FK330 is expressed in terms of the weight of a simple substance (non-hydrate). Docetaxel (a docetaxel hydrate injectable preparation (Taxotere (trademark), for intravenous infusion)) was purchased from Sanofi-Aventis SA, and was used as docetaxel.
FK330 was suspended (20 mg/mL) in a 0.5% aqueous methyl cellulose solution (0.5% MC), and was orally administered. Docetaxel was prepared to a concentration of 20 mg/mL with 95% ethanol, and then diluted to 1.5 mg/mL with physiological saline for injection (Otsuka Pharmaceutical Group) immediately before administration and intravenously administered through the tail vein.
Human breast cancer-derived MDA-MB-468 (HTB-132) was obtained from American Type Culture Collection (VA, USA). […]
(§1) The body weight and the tumor diameter, determined by using a digital caliper, were measured twice a week. The tumor volume was calculated from the calculation formula for ellipsoid volume of (major axis×[minor axis]^2×0.5).
(§2) The results are expressed as the mean value (Mean)±standard error (SEM). […] Using the actual measured values of the tumor volume at each measurement time point, an unpaired statistical test (Student's t-test) of the difference between two groups was carried out between a single administration group and a combined use group. […]

[2] = system: human breast cancer (MDA-MB-231); test: Example 6: FK330 with paclitaxel in MDA-MB-231 tumor-bearing mice; assay type: in vivo, nude mice; details: FK330 100 mg/kg bid p.o. + paclitaxel 10 mg/kg/day i.v. (4 days each cycle), P<0.01
Method: The dose of FK330 is expressed in terms of the weight of a simple substance (non-hydrate). Paclitaxel was purchased from LC Laboratories, Inc. (Woburn, Mass., USA), and was used as paclitaxel.
FK330 was suspended (20 mg/mL) in a 0.5% aqueous methyl cellulose solution (0.5% MC), and was orally administered. Paclitaxel was prepared into a stock solution at 10 mg/mL with an ethanol/cremophor solution (mixed at 1:1), and then the stock solution was diluted to 1 mg/mL with physiological saline for injection (Otsuka Pharmaceutical Group) immediately before administration and was intravenously administered through the tail vein.
Human breast cancer-derived MDA-MB-231 (HTB-26) was obtained from American Type Culture Collection (VA, USA). […]
as §1
as §2, with “points,” for “point,”

O=C(/C=C/c1ccc(Cl)cc1)N[C@@H](Cc1ccccn1)C(=O)NCC(=O)N1CCC(Oc2cc(C(F)(F)F)ncn2)CC1 [FK330, N^2-[(2E)-3-(4-chlorophenyl)-2-propenoyl]-N-[2-oxo-2-(4-{[6-(trifluoromethyl)pyrimidin-4-yl]oxy}piperidin-1-yl)ethyl]-3-pyridin-2-yl-L-alaninamide]
tumor volume reduction ratio compared with the docetaxel-only group ([1]; Day 37, P<0.05): 46.6% | tumor volume reduction ratio compared with the docetaxel-only group ([1]; Day 65, P<0.01): 76.6% | tumor volume reduction ratio compared with the paclitaxel-only group ([2]; Day 28): 59.6% | tumor volume reduction ratio compared with the paclitaxel-only group ([2]; Day 66): 82.8%
